Assay results published in ChEMBL document CHEMBL3991601, “The target landscape of clinical kinase drugs” (Science, 2017).
pKd: −log10 of the molar value. Active and inactive are the calls of the source.

Legend:
[1] = target: Proto-oncogene tyrosine-protein kinase receptor Ret (Homo sapiens, UniProt P07949)
[2] = target: DNA topoisomerase 2-alpha (Homo sapiens, UniProt P11388)
[3] = target: T1, AarF domain-containing protein kinase 1 (Homo sapiens, UniProt Q86TW2)
T1 sequence (Q86TW2 whole entry): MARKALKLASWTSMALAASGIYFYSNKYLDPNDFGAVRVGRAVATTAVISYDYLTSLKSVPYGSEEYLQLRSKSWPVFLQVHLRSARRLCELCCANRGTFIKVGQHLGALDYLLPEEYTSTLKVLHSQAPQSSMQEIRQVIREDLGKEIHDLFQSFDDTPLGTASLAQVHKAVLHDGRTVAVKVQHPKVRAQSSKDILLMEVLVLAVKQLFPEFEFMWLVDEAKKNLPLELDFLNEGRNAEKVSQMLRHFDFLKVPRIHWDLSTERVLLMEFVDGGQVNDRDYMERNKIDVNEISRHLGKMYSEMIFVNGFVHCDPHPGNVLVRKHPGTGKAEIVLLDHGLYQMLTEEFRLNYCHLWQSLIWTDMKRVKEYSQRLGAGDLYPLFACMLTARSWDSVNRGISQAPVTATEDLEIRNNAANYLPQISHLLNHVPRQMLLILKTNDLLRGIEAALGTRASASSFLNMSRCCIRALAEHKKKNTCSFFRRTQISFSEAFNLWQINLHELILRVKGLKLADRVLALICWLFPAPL

[4] = target: T2, EKC/KEOPS complex subunit TP53RK (Homo sapiens, UniProt Q96S44)
T2 sequence (Q96S44 whole entry): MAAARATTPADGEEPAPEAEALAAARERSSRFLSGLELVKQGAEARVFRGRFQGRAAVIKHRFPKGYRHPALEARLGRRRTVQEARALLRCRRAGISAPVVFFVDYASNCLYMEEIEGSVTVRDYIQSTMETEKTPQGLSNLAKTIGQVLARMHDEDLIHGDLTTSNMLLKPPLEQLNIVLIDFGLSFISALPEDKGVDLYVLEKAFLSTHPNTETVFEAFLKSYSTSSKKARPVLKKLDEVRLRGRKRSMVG

[5] = target: Membrane-associated progesterone receptor component 1 (Homo sapiens, UniProt O00264)
Membrane-associated progesterone receptor component 1, sequence (O00264 whole entry): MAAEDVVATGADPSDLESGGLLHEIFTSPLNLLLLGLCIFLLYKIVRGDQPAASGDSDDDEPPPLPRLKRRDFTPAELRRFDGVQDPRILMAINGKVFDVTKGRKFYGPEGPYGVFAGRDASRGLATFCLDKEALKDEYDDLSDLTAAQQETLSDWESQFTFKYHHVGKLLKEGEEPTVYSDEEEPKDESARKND

[6] = target: Protein kinase C theta type (Homo sapiens, UniProt Q04759)
Protein kinase C theta type, sequence (Q04759 whole entry): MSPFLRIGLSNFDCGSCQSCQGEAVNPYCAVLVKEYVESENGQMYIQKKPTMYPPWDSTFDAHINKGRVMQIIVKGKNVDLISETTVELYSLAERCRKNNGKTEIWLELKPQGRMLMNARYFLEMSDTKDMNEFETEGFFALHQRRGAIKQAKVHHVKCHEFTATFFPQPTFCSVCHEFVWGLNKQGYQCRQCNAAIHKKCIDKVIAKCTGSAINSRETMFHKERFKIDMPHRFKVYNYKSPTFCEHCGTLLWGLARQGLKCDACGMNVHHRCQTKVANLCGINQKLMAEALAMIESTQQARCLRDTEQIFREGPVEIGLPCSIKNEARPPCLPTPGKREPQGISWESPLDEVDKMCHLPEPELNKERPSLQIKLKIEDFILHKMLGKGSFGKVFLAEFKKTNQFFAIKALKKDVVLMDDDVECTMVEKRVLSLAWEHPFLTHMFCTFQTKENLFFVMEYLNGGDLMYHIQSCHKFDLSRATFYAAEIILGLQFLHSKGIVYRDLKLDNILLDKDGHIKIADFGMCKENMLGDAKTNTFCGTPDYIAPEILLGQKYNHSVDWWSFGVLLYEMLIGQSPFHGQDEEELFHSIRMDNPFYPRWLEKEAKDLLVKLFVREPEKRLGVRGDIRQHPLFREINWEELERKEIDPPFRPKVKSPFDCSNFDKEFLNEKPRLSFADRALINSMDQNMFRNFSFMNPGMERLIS

[7] = target: Dual specificity mitogen-activated protein kinase kinase 1 (Homo sapiens, UniProt Q02750)
Dual specificity mitogen-activated protein kinase kinase 1, sequence (Q02750 whole entry): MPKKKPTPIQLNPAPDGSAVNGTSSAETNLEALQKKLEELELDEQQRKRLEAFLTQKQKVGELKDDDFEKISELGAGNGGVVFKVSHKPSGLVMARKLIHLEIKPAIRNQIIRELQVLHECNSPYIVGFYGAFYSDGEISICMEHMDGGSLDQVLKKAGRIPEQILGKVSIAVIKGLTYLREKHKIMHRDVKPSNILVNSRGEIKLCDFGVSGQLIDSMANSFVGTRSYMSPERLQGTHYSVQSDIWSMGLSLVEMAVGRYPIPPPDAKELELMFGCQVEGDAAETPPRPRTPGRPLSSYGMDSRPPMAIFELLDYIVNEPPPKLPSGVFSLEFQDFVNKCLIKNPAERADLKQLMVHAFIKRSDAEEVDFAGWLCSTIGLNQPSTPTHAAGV

[8] = target: Serine/threonine-protein kinase pim-2 (Homo sapiens, UniProt Q9P1W9)
Serine/threonine-protein kinase pim-2, sequence (Q9P1W9 whole entry): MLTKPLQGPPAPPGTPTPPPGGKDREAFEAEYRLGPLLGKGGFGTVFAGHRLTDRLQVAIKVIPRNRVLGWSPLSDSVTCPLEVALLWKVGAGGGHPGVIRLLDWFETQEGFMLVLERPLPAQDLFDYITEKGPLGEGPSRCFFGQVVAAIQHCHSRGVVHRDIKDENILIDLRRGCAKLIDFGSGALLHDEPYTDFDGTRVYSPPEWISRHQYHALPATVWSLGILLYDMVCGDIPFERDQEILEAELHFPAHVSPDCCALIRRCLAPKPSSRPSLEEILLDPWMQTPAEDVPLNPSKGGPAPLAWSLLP

Myosin-10 = Myosin-10 (Homo sapiens, UniProt P35580)
[9] = target: Uncharacterized aarF domain-containing protein kinase 5 (Homo sapiens, UniProt Q3MIX3)
Uncharacterized aarF domain-containing protein kinase 5, sequence (Q3MIX3 whole entry, the tested form may be a part): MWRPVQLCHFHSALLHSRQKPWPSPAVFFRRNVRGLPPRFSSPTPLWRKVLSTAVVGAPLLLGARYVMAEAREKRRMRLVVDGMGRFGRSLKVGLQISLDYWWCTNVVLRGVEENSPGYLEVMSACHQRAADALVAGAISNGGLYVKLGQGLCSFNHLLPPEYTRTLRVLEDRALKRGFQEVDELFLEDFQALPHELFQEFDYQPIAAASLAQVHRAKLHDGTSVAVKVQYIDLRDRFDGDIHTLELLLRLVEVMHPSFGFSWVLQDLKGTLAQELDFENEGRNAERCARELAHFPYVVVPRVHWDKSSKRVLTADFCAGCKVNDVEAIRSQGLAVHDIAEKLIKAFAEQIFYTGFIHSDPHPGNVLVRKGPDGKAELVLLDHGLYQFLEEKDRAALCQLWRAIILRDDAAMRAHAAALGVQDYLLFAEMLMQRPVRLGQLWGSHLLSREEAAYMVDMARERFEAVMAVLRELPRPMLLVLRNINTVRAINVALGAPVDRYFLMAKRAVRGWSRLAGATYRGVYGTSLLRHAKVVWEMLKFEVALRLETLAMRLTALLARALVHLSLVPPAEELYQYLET

[10] = target: T3, Cysteine--tRNA ligase, cytoplasmic (Homo sapiens, UniProt P49589)
T3 sequence (P49589 whole entry): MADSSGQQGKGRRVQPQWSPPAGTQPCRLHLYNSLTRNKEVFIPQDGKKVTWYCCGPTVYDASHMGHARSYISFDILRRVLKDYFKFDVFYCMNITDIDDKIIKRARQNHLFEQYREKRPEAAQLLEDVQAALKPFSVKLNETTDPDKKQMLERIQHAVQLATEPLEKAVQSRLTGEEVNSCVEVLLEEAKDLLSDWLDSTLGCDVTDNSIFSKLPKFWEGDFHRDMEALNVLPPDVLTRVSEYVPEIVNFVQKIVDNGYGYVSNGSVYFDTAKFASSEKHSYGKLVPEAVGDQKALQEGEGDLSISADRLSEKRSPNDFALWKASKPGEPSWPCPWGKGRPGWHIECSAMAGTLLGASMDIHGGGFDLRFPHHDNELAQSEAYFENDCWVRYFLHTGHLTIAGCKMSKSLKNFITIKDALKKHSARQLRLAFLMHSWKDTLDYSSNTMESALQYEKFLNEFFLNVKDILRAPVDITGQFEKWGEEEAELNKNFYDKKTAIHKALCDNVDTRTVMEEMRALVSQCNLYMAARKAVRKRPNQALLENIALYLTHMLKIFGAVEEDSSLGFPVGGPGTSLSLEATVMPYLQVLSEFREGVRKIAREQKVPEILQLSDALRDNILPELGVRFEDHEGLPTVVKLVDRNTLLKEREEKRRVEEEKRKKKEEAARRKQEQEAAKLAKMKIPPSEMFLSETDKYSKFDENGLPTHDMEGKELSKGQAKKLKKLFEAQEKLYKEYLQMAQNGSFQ

[11] = target: Dual specificity testis-specific protein kinase 2 (Homo sapiens, UniProt Q96S53)
Dual specificity testis-specific protein kinase 2, sequence (Q96S53 whole entry): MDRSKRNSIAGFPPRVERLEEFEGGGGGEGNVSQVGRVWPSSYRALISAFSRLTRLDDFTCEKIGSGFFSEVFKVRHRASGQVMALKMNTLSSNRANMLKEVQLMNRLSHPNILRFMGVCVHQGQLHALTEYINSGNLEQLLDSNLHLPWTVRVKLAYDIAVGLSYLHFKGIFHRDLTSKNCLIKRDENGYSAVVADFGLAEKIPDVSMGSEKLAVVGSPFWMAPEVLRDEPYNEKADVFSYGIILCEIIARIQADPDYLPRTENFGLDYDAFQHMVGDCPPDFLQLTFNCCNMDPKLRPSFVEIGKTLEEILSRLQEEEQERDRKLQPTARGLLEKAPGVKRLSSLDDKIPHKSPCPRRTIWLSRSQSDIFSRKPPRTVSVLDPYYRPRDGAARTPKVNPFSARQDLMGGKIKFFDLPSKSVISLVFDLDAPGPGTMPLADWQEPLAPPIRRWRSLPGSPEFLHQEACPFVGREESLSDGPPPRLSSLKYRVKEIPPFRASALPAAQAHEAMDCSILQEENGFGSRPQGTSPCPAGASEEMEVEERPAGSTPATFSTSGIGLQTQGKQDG

[12] = target: Dual specificity protein kinase CLK2 (Homo sapiens, UniProt P49760)
Dual specificity protein kinase CLK2, sequence (P49760 whole entry): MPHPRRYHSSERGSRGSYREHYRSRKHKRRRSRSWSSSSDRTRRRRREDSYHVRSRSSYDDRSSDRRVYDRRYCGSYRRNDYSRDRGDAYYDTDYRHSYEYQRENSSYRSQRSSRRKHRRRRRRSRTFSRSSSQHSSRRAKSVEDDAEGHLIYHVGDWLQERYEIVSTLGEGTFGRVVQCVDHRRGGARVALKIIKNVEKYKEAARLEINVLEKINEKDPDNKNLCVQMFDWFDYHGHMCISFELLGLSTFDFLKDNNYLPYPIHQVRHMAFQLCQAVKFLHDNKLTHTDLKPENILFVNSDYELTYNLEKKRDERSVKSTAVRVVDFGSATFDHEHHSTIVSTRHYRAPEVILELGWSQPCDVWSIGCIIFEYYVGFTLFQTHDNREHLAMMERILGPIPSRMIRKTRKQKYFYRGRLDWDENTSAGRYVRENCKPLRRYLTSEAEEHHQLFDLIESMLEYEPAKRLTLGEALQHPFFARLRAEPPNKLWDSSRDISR

[13] = target: Serine/threonine-protein kinase Nek7 (Homo sapiens, UniProt Q8TDX7)
Serine/threonine-protein kinase Nek7, sequence (Q8TDX7 whole entry): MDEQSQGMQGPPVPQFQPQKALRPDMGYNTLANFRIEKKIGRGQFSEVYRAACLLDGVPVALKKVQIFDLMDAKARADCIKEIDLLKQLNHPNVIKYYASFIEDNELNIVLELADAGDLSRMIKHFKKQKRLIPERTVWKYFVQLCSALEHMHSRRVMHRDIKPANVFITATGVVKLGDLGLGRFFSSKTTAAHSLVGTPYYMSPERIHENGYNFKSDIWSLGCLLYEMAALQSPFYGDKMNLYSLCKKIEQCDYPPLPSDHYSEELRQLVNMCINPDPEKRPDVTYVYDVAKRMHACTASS
Further: in the data inactive means no Kd found up to 30 µM.

Proto-oncogene tyrosine-protein kinase receptor Ret, sequence (P07949 whole entry): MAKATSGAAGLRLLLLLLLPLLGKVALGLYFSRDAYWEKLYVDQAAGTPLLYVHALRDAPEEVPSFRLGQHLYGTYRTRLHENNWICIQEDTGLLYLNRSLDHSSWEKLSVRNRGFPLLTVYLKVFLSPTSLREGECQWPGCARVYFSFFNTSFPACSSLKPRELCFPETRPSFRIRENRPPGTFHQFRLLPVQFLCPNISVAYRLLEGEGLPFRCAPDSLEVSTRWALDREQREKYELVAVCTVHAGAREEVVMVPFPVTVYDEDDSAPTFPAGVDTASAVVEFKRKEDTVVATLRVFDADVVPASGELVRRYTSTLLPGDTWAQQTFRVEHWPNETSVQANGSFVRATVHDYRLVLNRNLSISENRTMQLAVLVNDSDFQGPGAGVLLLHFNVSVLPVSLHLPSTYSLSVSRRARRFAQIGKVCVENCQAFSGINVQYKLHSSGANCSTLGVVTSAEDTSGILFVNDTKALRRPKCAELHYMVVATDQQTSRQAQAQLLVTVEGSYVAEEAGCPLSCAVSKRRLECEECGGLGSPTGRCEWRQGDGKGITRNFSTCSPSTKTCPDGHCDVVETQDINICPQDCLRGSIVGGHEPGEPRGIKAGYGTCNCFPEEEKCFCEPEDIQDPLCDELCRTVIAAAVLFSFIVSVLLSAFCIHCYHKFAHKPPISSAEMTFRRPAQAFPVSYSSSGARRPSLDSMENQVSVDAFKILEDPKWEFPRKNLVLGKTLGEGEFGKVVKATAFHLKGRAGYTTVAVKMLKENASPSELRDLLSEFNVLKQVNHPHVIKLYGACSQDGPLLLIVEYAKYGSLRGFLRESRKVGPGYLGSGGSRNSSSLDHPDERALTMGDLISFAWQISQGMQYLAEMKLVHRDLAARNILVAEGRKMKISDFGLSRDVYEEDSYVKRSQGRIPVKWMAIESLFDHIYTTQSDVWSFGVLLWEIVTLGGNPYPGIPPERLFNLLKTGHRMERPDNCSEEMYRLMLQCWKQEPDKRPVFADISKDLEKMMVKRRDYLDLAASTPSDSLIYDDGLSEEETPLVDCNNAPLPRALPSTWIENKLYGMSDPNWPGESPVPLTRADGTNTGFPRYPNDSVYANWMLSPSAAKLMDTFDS

Row | SMILES | Kd [1] | Kd [2] | Kd [3] | Kd [4] | Kd [5] | Kd [6] | Kd [7] | Kd [8] | Kd (Myosin-10) | Kd [9] | Kd [10] | Kd [11] | Kd [12] | Kd [13] | pKd [6] | pKd [12]
1 | O=c1[nH]c([C@@H]2CCCN2)nc2c1oc1ccc(Cl)cc12 | > 30 µM (inactive) | > 30 µM (inactive) | > 30 µM (inactive) | > 30 µM (inactive) | > 30 µM (inactive) | > 30 µM (inactive) | > 30 µM (inactive) | > 30 µM (inactive) |  |  |  |  |  |  |  | 
2 | Cn1cc(-c2[nH]c3cc(NC(=O)[C@H](N)C4CCCCC4)cc4c3c2C=NNC4=O)cn1 | 0.01 µM (active) | > 30 µM (inactive) | 4.5 µM (active) | > 30 µM (inactive) | > 30 µM (inactive) | > 30 µM (inactive) | > 30 µM (inactive) |  | > 30 µM (inactive) | > 30 µM (inactive) | > 30 µM (inactive) | > 30 µM (inactive) | > 30 µM (inactive) | > 30 µM (inactive) |  | 
3 | Cc1c(NC(=O)OC[C@@H]2COCCN2)cn2ncnc(Nc3ccc4c(cnn4Cc4cccc(F)c4)c3)c12 [AC-480] | > 30 µM (inactive) |  | > 30 µM (inactive) | > 30 µM (inactive) |  | > 30 µM (inactive) | > 30 µM (inactive) | > 30 µM (inactive) | > 30 µM (inactive) |  |  |  |  |  |  | 
4 | C=CCn1c(=O)c2cnc(Nc3ccc(N4CCN(C)CC4)cc3)nc2n1-c1cccc(C(C)(C)O)n1 [ADAVOSERTIB] |  | > 30 µM (inactive) | 1.9 µM (active) | > 30 µM (inactive) | > 30 µM (inactive) |  |  | > 30 µM (inactive) |  | > 30 µM (inactive) | > 30 µM (inactive) | > 30 µM (inactive) |  |  |  | 
5 | CCc1cc2c(cc1N1CCC(N3CCOCC3)CC1)C(C)(C)c1[nH]c3cc(C#N)ccc3c1C2=O [ALECTINIB] |  | > 30 µM (inactive) | > 30 µM (inactive) | > 30 µM (inactive) |  | > 30 µM (inactive) | > 30 µM (inactive) | > 30 µM (inactive) | > 30 µM (inactive) | > 30 µM (inactive) | > 30 µM (inactive) | > 30 µM (inactive) | 2.32 µM (active) |  |  | 
6 | CNC(=O)c1ccc(Nc2ncc(C(F)(F)F)c(NCc3nccnc3N(C)S(C)(=O)=O)n2)cc1 [DEFACTINIB] | 27.5 µM (active) | > 30 µM (inactive) | > 30 µM (inactive) | > 30 µM (inactive) | > 30 µM (inactive) | > 30 µM (inactive) | > 30 µM (inactive) | > 30 µM (inactive) |  | > 30 µM (inactive) | > 30 µM (inactive) | > 30 µM (inactive) | > 30 µM (inactive) |  |  | 
7 | COc1cc(Nc2ncc(F)c(Nc3ccc4c(n3)N(COP(=O)(O)O)C(=O)C(C)(C)O4)n2)cc(OC)c1OC [FOSTAMATINIB] | 1.15 µM (active) |  | 1.07 µM (active) | > 30 µM (inactive) | > 30 µM (inactive) | > 30 µM (inactive) | > 30 µM (inactive) |  | > 30 µM (inactive) | > 30 µM (inactive) | > 30 µM (inactive) | > 30 µM (inactive) |  | > 30 µM (inactive) |  | 
8 | Cc1ccc(C(=O)Nc2ccc(Oc3cc4cnn(C)c4cc3-c3cn[nH]c3)c(F)c2)c(=O)n1-c1ccc(F)cc1 [MERESTINIB] | 1.38 µM (active) | > 30 µM (inactive) | > 30 µM (inactive) | > 30 µM (inactive) | > 30 µM (inactive) | > 30 µM (inactive) | > 30 µM (inactive) | > 30 µM (inactive) | > 30 µM (inactive) | > 30 µM (inactive) | > 30 µM (inactive) |  | > 30 µM (inactive) |  |  | 
9 | COc1cccc2cc(-c3nc([C@H]4CC[C@H](C(=O)O)CC4)n4ncnc(N)c34)[nH]c12 [OSI-027] | 0.057 µM (active) | > 30 µM (inactive) | > 30 µM (inactive) | > 30 µM (inactive) | > 30 µM (inactive) | > 30 µM (inactive) | > 30 µM (inactive) | > 30 µM (inactive) | > 30 µM (inactive) |  | > 30 µM (inactive) |  | > 30 µM (inactive) |  |  | 
10 | O=C(Nc1ccc(OC(F)(F)F)cc1)c1sccc1NCc1ccnc2ccccc12 [OSI-930] | 0.388 µM (active) | > 30 µM (inactive) | > 30 µM (inactive) | > 30 µM (inactive) | > 30 µM (inactive) | > 30 µM (inactive) | > 30 µM (inactive) | > 30 µM (inactive) | > 30 µM (inactive) | > 30 µM (inactive) | > 30 µM (inactive) | > 30 µM (inactive) | > 30 µM (inactive) |  |  | 
11 | FC(F)(F)c1ccc(CNc2ccc(Cc3c[nH]c4ncc(Cl)cc34)cn2)cn1 [PEXIDARTINIB] | > 30 µM (inactive) | > 30 µM (inactive) | > 30 µM (inactive) | > 30 µM (inactive) | > 30 µM (inactive) |  | > 30 µM (inactive) | > 30 µM (inactive) | > 30 µM (inactive) |  | > 30 µM (inactive) |  | > 30 µM (inactive) |  | 8.22 | 
12 | COCCN1CCN(Cc2ccc(-c3n[nH]c4c3C(=O)c3c(NC(=O)NN5CCOCC5)cccc3-4)cc2)CC1 [RGB-286638] | > 30 µM (inactive) | > 30 µM (inactive) | > 30 µM (inactive) | 1.72 µM (active) | > 30 µM (inactive) | > 30 µM (inactive) | > 30 µM (inactive) | 0.042 µM (active) | > 30 µM (inactive) | > 30 µM (inactive) | > 30 µM (inactive) |  | 0.018 µM (active) |  |  | 
13 | C=CC(=O)Nc1cccc(Nc2nc(Nc3ccc(N4CCN(C(C)=O)CC4)cc3OC)ncc2C(F)(F)F)c1 [ROCILETINIB] | > 30 µM (inactive) | > 30 µM (inactive) | > 30 µM (inactive) | > 30 µM (inactive) |  |  | > 30 µM (inactive) | > 30 µM (inactive) | > 30 µM (inactive) | > 30 µM (inactive) |  |  | > 30 µM (inactive) |  |  | 
14 | CN1CCN(c2nc(C3=C(c4c[nH]c5ccccc45)C(=O)NC3=O)c3ccccc3n2)CC1 [SOTRASTAURIN] | > 30 µM (inactive) | > 30 µM (inactive) | > 30 µM (inactive) | > 30 µM (inactive) |  | 0.013 µM (active) | > 30 µM (inactive) | > 30 µM (inactive) |  | > 30 µM (inactive) | > 30 µM (inactive) |  |  |  |  | 6.92
15 | Cc1cc(C(=O)Nc2cc(Oc3ccc4nc(NC(=O)C5CC5)cn4n3)ccc2C)n(C)n1 [TAK-593] |  | > 30 µM (inactive) | > 30 µM (inactive) | > 30 µM (inactive) |  | > 30 µM (inactive) | > 30 µM (inactive) | > 30 µM (inactive) |  | > 30 µM (inactive) |  | > 30 µM (inactive) | > 30 µM (inactive) |  |  | 
16 | CNC(=O)c1cc(COc2nnc(Nc3ccc(Cl)cc3)c3ccoc23)ccn1 [TELATINIB] | > 30 µM (inactive) | > 30 µM (inactive) | > 30 µM (inactive) | > 30 µM (inactive) | > 30 µM (inactive) | > 30 µM (inactive) | > 30 µM (inactive) | > 30 µM (inactive) |  |  |  | > 30 µM (inactive) | > 30 µM (inactive) |  |  | 
